Measured values as given in PubChem BioAssay (NCI).
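Method: 48-hour compound exposure of cells in 96-well plates, five concentrations, linear interpolation of endpoints. TGI denotes the concentration required for complete inhibition of growth.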

Key:
Assay in all cases: NCI-60 cell line screen, 48 h
EKVX NSCLC = tested on: EKVX NSCLC
LOX IMVI melanoma = tested on: LOX IMVI melanoma
SN12C renal = tested on: SN12C renal
TK-10 renal = tested on: TK-10 renal
XF 498 CNS = tested on: XF 498 CNS
SNB-75 CNS = tested on: SNB-75 CNS
SK-OV-3 ovarian = tested on: SK-OV-3 ovarian
SK-MEL-28 melanoma = tested on: SK-MEL-28 melanoma
SNB-19 CNS = tested on: SNB-19 CNS
CAKI-1 renal = tested on: CAKI-1 renal
KM20L2 colon = tested on: KM20L2 colon
A549 NSCLC = tested on: A549 NSCLC
IGROV1 ovarian = tested on: IGROV1 ovarian
UO-31 renal = tested on: UO-31 renal
MALME-3M melanoma = tested on: MALME-3M melanoma
OVCAR-4 ovarian = tested on: OVCAR-4 ovarian
HT29 colon = tested on: HT29 colon
RXF 393 renal = tested on: RXF 393 renal
SK-MEL-2 melanoma = tested on: SK-MEL-2 melanoma
SK-MEL-5 melanoma = tested on: SK-MEL-5 melanoma
786-0 renal = tested on: 786-0 renal
MOLT-4 leukemia = tested on: MOLT-4 leukemia
LXFL 529 NSCLC = tested on: LXFL 529 NSCLC
NCI-H23 lung = tested on: NCI-H23 lung
SW-620 colon = tested on: SW-620 colon
SF-295 CNS = tested on: SF-295 CNS
U251 CNS = tested on: U251 CNS
SF-268 CNS = tested on: SF-268 CNS
KM12 colon = tested on: KM12 colon
CCRF-CEM leukemia = tested on: CCRF-CEM leukemia
NCI-H522 lung = tested on: NCI-H522 lung
HCT-15 colon = tested on: HCT-15 colon
K-562 leukemia = tested on: K-562 leukemia
HL-60(TB) leukemia = tested on: HL-60(TB) leukemia
UACC-257 melanoma = tested on: UACC-257 melanoma
SNB-78 CNS = tested on: SNB-78 CNS
RXF-631 renal = tested on: RXF-631 renal
M14 melanoma = tested on: M14 melanoma
COLO 205 colon = tested on: COLO 205 colon
DMS 114 small cell lung = tested on: DMS 114 small cell lung
OVCAR-8 ovarian = tested on: OVCAR-8 ovarian
UACC-62 melanoma = tested on: UACC-62 melanoma
RPMI-8226 leukemia = tested on: RPMI-8226 leukemia
DMS 273 small cell lung = tested on: DMS 273 small cell lung
SF-539 CNS = tested on: SF-539 CNS
A498 renal = tested on: A498 renal
NCI-H460 lung = tested on: NCI-H460 lung
HOP-18 NSCLC = tested on: HOP-18 NSCLC
OVCAR-3 ovarian = tested on: OVCAR-3 ovarian
OVCAR-5 ovarian = tested on: OVCAR-5 ovarian
NCI-H226 lung = tested on: NCI-H226 lung
HCT-116 colon = tested on: HCT-116 colon
HOP-92 NSCLC = tested on: HOP-92 NSCLC
HOP-62 NSCLC = tested on: HOP-62 NSCLC
DLD-1 colon = tested on: DLD-1 colon
HCC-2998 colon = tested on: HCC-2998 colon
ACHN renal = tested on: ACHN renal
M19-MEL melanoma = tested on: M19-MEL melanoma

COc1cc(OC)c2c(=O)c3cccc([N+](=O)[O-])c3n(C)c2c1
TGI (EKVX NSCLC): > 100 µM | TGI (LOX IMVI melanoma): > 100 µM | TGI (SN12C renal): > 100 µM | TGI (TK-10 renal): > 100 µM | TGI (XF 498 CNS): > 100 µM | TGI (SNB-75 CNS): > 100 µM | TGI (SK-OV-3 ovarian): > 100 µM | TGI (SK-MEL-28 melanoma): > 100 µM | TGI (SNB-19 CNS): > 100 µM | TGI (CAKI-1 renal): > 100 µM | TGI (KM20L2 colon): > 100 µM | TGI (A549 NSCLC): > 100 µM | TGI (IGROV1 ovarian): > 100 µM | TGI (UO-31 renal): > 100 µM | TGI (MALME-3M melanoma): > 100 µM | TGI (OVCAR-4 ovarian): > 100 µM | TGI (HT29 colon): > 100 µM | TGI (RXF 393 renal): > 100 µM | TGI (SK-MEL-2 melanoma): > 100 µM | TGI (SK-MEL-5 melanoma): > 100 µM | TGI (786-0 renal): > 100 µM | TGI (MOLT-4 leukemia): > 100 µM | TGI (LXFL 529 NSCLC): > 100 µM | TGI (NCI-H23 lung): > 100 µM | TGI (SW-620 colon): > 100 µM | TGI (SF-295 CNS): > 100 µM | TGI (U251 CNS): > 100 µM | TGI (SF-268 CNS): > 100 µM | TGI (KM12 colon): > 100 µM | TGI (CCRF-CEM leukemia): > 100 µM | TGI (NCI-H522 lung): > 100 µM | TGI (HCT-15 colon): > 100 µM | TGI (K-562 leukemia): > 100 µM | TGI (HL-60(TB) leukemia): > 100 µM | TGI (UACC-257 melanoma): > 100 µM | TGI (SNB-78 CNS): > 100 µM | TGI (RXF-631 renal): > 100 µM | TGI (M14 melanoma): > 100 µM | TGI (COLO 205 colon): > 100 µM | TGI (DMS 114 small cell lung): > 100 µM | TGI (OVCAR-8 ovarian): > 100 µM | TGI (UACC-62 melanoma): > 100 µM | TGI (RPMI-8226 leukemia): > 100 µM | TGI (DMS 273 small cell lung): > 100 µM | TGI (SF-539 CNS): > 100 µM

CC1(C)OC(=O)C(=C2CCC(C(=O)Nc3cccc(C(F)(F)F)c3)N2)C(=O)O1 (configuration not stated)
TGI (A498 renal): > 100 µM | TGI (EKVX NSCLC): > 100 µM | TGI (LOX IMVI melanoma): > 100 µM | TGI (SN12C renal): > 100 µM | TGI (TK-10 renal): > 100 µM | TGI (NCI-H460 lung): > 100 µM | TGI (XF 498 CNS): 89.8 µM | TGI (HOP-18 NSCLC): > 100 µM | TGI (SNB-75 CNS): > 100 µM | TGI (SK-OV-3 ovarian): > 100 µM | TGI (SK-MEL-28 melanoma): > 100 µM | TGI (SNB-19 CNS): > 100 µM | TGI (CAKI-1 renal): 26.6 µM | TGI (OVCAR-3 ovarian): > 100 µM | TGI (KM20L2 colon): > 100 µM | TGI (A549 NSCLC): > 100 µM | TGI (IGROV1 ovarian): > 100 µM | TGI (UO-31 renal): > 100 µM | TGI (MALME-3M melanoma): > 100 µM | TGI (OVCAR-5 ovarian): > 100 µM | TGI (OVCAR-4 ovarian): > 100 µM | TGI (HT29 colon): > 100 µM | TGI (RXF 393 renal): > 100 µM | TGI (NCI-H226 lung): > 100 µM | TGI (SK-MEL-2 melanoma): > 100 µM | TGI (SK-MEL-5 melanoma): > 100 µM | TGI (HCT-116 colon): > 100 µM | TGI (786-0 renal): > 100 µM | TGI (MOLT-4 leukemia): > 100 µM | TGI (LXFL 529 NSCLC): > 100 µM | TGI (NCI-H23 lung): > 100 µM | TGI (HOP-92 NSCLC): > 100 µM | TGI (HOP-62 NSCLC): > 100 µM | TGI (SW-620 colon): > 100 µM | TGI (SF-295 CNS): > 100 µM | TGI (DLD-1 colon): > 100 µM | TGI (U251 CNS): > 100 µM | TGI (SF-268 CNS): > 100 µM | TGI (HCC-2998 colon): > 100 µM | TGI (KM12 colon): > 100 µM | TGI (ACHN renal): > 100 µM | TGI (CCRF-CEM leukemia): > 100 µM | TGI (NCI-H522 lung): > 100 µM | TGI (HCT-15 colon): > 100 µM | TGI (K-562 leukemia): > 100 µM | TGI (M19-MEL melanoma): > 100 µM | TGI (HL-60(TB) leukemia): > 100 µM | TGI (UACC-257 melanoma): > 100 µM | TGI (SNB-78 CNS): > 100 µM | TGI (M14 melanoma): > 100 µM | TGI (COLO 205 colon): > 100 µM | TGI (DMS 114 small cell lung): > 100 µM | TGI (OVCAR-8 ovarian): > 100 µM | TGI (UACC-62 melanoma): > 100 µM | TGI (RPMI-8226 leukemia): > 100 µM | TGI (DMS 273 small cell lung): > 100 µM | TGI (SF-539 CNS): > 100 µM
